Reference: ChEMBL document CHEMBL1201862, “PubChem BioAssay data set” (2004)
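Grown in 96-well plates, cells were treated for 48 hours with each compound at five concentrations. Insufficient inhibition: endpoint recorded as highest concentration tested. GI50 = concentration required for 50% inhibition of growth.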 Active and inactive are the calls of the source. No stated cut-off is given here; in the data, active = GI50 up to about 1.1 µM and inactive = higher.

Experiments:
Assay in all cases: NCI anticancer screen, dose series, 48 h
A549 = system: A549
CCRF-CEM = system: CCRF-CEM
EKVX = system: EKVX
HCT-15 = system: HCT-15
HL-60 = system: HL-60
HOP-62 = system: HOP-62
HT-29 = system: HT-29
M14 = system: M14
Malme-3M = system: Malme-3M
OVCAR-3 = system: OVCAR-3
RPMI-8226 = system: RPMI-8226
SK-MEL-5 = system: SK-MEL-5
SN12C = system: SN12C
SR = system: SR
U-251 = system: U-251
UACC-62 = system: UACC-62
SF-539 = system: SF-539

Structure (SMILES) | GI50 (A549) | GI50 (CCRF-CEM) | GI50 (EKVX) | GI50 (HCT-15) | GI50 (HL-60) | GI50 (HOP-62) | GI50 (HT-29) | GI50 (M14) | GI50 (Malme-3M) | GI50 (OVCAR-3) | GI50 (RPMI-8226) | GI50 (SK-MEL-5) | GI50 (SN12C) | GI50 (SR) | GI50 (U-251) | GI50 (UACC-62) | GI50 (SF-539)
O=C1[C@H](Cl)[C@H]2c3cc4ccccc4nc3Oc3ccccc3N12 | 33.5 µM (inactive) | 61 µM (inactive) | 81.8 µM (inactive) | 43 µM | 25.5 µM (inactive) | 35.4 µM (inactive) | 69.8 µM (inactive) | 76.9 µM (inactive) | 49.4 µM (inactive) | 48.4 µM (inactive) | 22.6 µM (inactive) | 30.9 µM (inactive) | 43.4 µM (inactive) | 20.9 µM (inactive) | 30.9 µM (inactive) | 18.3 µM (inactive) | –
Cc1cccc(C)c1NC(=O)CCCC(=O)C(C#N)c1ccccc1 (stereo not given) | > 10 µM (inactive) | > 100 µM (inactive) | > 10 µM (inactive) | > 10 µM | > 100 µM (inactive) | > 10 µM (inactive) | > 10 µM (inactive) | > 100 µM (inactive) | – | > 10 µM (inactive) | > 100 µM (inactive) | > 100 µM (inactive) | > 10 µM (inactive) | > 100 µM (inactive) | > 10 µM (inactive) | > 10 µM (inactive) | > 10 µM (inactive)
O=C(CO)C1CC2C=CC1C2 (stereo not given) | > 100 µM (inactive) | > 100 µM (inactive) | > 100 µM (inactive) | > 100 µM | > 100 µM (inactive) | > 100 µM (inactive) | > 100 µM (inactive) | > 100 µM (inactive) | > 100 µM (inactive) | > 100 µM (inactive) | > 100 µM (inactive) | > 100 µM (inactive) | > 100 µM (inactive) | – | > 100 µM (inactive) | > 100 µM (inactive) | > 100 µM (inactive)
CCN(CC)C(=O)C/C(C)=N/NC(=O)c1ccncc1 | > 100 µM (inactive) | > 100 µM (inactive) | > 100 µM (inactive) | – | > 100 µM (inactive) | > 100 µM (inactive) | > 100 µM (inactive) | > 100 µM (inactive) | > 100 µM (inactive) | > 100 µM (inactive) | > 100 µM (inactive) | > 100 µM (inactive) | – | – | > 100 µM (inactive) | > 100 µM (inactive) | > 100 µM (inactive)
c1ccc2c(c1)OCCOCCOc1ccccc1OCCO2 | 71 µM (inactive) | 34.4 µM (inactive) | 75 µM (inactive) | 43.9 µM | 24.8 µM (inactive) | 67.1 µM (inactive) | 33.3 µM (inactive) | 44.9 µM (inactive) | 33.1 µM (inactive) | 28.2 µM (inactive) | 22.3 µM (inactive) | 68.2 µM (inactive) | 76 µM (inactive) | – | 34.4 µM (inactive) | 51.2 µM (inactive) | > 100 µM (inactive)
O=C(O)c1c2c(c(C(=O)O)c3ccccc13)-c1ccccc1-2 | 36 µM (inactive) | 32.5 µM (inactive) | 31.4 µM (inactive) | – | 36.4 µM (inactive) | 31.7 µM (inactive) | 47.4 µM (inactive) | 47.5 µM (inactive) | 31 µM (inactive) | 27.5 µM (inactive) | 40.2 µM (inactive) | – | 35.1 µM (inactive) | 55.6 µM (inactive) | 35.6 µM (inactive) | 22.9 µM (inactive) | 28.7 µM (inactive)
COc1nc(NC2OCC(OC(C)=O)C(OC(C)=O)C2OC(C)=O)c(-c2csc(N)n2)c(=O)n1C (stereo not given) | > 100 µM (inactive) | > 100 µM (inactive) | – | > 100 µM | > 100 µM (inactive) | > 100 µM (inactive) | > 100 µM (inactive) | > 100 µM (inactive) | > 100 µM (inactive) | > 100 µM (inactive) | > 100 µM (inactive) | > 100 µM (inactive) | > 100 µM (inactive) | > 100 µM (inactive) | > 100 µM (inactive) | > 100 µM (inactive) | > 100 µM (inactive)
CC1=CC(=O)c2c(C=O)c(O)c(O)c(C(C)C)c2C1=O | – | 14.7 µM (inactive) | – | 26.2 µM | 25.6 µM (inactive) | 32.5 µM (inactive) | – | 31.3 µM (inactive) | 22.9 µM (inactive) | – | 19.8 µM (inactive) | 0.494 µM (active) | 35.1 µM (inactive) | 22.8 µM (inactive) | 19.8 µM (inactive) | 20.3 µM (inactive) | 25.6 µM (inactive)
Cc1ccc(NC(=O)C2C(=O)N(c3ccc(C)c(C)c3)C(=O)C2N=N)cc1C (stereo not given) | 58.9 µM (inactive) | – | > 100 µM (inactive) | 74.6 µM | > 100 µM (inactive) | > 100 µM (inactive) | > 100 µM (inactive) | > 100 µM (inactive) | > 100 µM (inactive) | > 100 µM (inactive) | – | 67 µM (inactive) | > 100 µM (inactive) | – | 95.9 µM (inactive) | > 100 µM (inactive) | > 100 µM (inactive)
COc1ccc2c3c([nH]c2c1[N+](=O)[O-])C(C)N(C)CC3 (stereo not given) | > 100 µM (inactive) | 32.4 µM (inactive) | > 100 µM (inactive) | 80.4 µM | 39.6 µM (inactive) | > 100 µM (inactive) | 18.9 µM (inactive) | > 100 µM (inactive) | > 100 µM (inactive) | > 100 µM (inactive) | 77.4 µM (inactive) | 49.5 µM (inactive) | > 100 µM (inactive) | – | > 100 µM (inactive) | > 100 µM (inactive) | > 100 µM (inactive)
CCN(CC)/C(=C\Cl)Nc1ccccn1.[O-][Cl+3]([O-])([O-])O | > 100 µM (inactive) | > 100 µM (inactive) | > 100 µM (inactive) | > 100 µM | > 100 µM (inactive) | > 100 µM (inactive) | > 100 µM (inactive) | > 100 µM (inactive) | > 100 µM (inactive) | > 100 µM (inactive) | > 100 µM (inactive) | > 100 µM (inactive) | > 100 µM (inactive) | – | > 100 µM (inactive) | > 100 µM (inactive) | > 100 µM (inactive)
CCc1cc(C)cc2[n+]1CC=C2C.[O-][Cl+3]([O-])([O-])[O-] | > 100 µM (inactive) | – | > 100 µM (inactive) | – | 18.2 µM (inactive) | > 100 µM (inactive) | > 100 µM (inactive) | > 100 µM (inactive) | 35 µM (inactive) | 93.1 µM (inactive) | – | > 100 µM (inactive) | > 100 µM (inactive) | – | > 100 µM (inactive) | – | > 100 µM (inactive)
O=C1CC(c2ccccc2)NCN1 (stereo not given) | > 100 µM (inactive) | > 100 µM (inactive) | > 100 µM (inactive) | > 100 µM | > 100 µM (inactive) | > 100 µM (inactive) | > 100 µM (inactive) | > 100 µM (inactive) | > 100 µM (inactive) | > 100 µM (inactive) | > 100 µM (inactive) | > 100 µM (inactive) | > 100 µM (inactive) | > 100 µM (inactive) | > 100 µM (inactive) | > 100 µM (inactive) | –
Cc1c(C(=O)/C=C/c2ccccc2O)c(=O)n(-c2ccccc2)n1C | 34 µM (inactive) | 9.55 µM (inactive) | 68.7 µM (inactive) | 24.2 µM | – | – | 35.5 µM (inactive) | – | 19.4 µM (inactive) | 29.2 µM (inactive) | – | 12.3 µM (inactive) | 21 µM (inactive) | – | 12.2 µM (inactive) | 29 µM (inactive) | 19.8 µM (inactive)
O=C(O)c1c(-c2cccc3ccccc23)sc(-c2cccc3ccccc23)c1C(=O)O | > 100 µM (inactive) | 22.1 µM (inactive) | 90.8 µM (inactive) | > 100 µM | > 100 µM (inactive) | – | > 100 µM (inactive) | > 100 µM (inactive) | > 100 µM (inactive) | 63.8 µM (inactive) | 58.1 µM (inactive) | > 100 µM (inactive) | > 100 µM (inactive) | 47.9 µM (inactive) | > 100 µM (inactive) | 46.1 µM (inactive) | > 100 µM (inactive)
CCOC1=C2C(=O)OC(=O)C2C2CCCCC2=C1 (stereo not given) | > 100 µM (inactive) | > 100 µM (inactive) | > 100 µM (inactive) | > 100 µM | > 100 µM (inactive) | > 100 µM (inactive) | > 100 µM (inactive) | > 100 µM (inactive) | > 100 µM (inactive) | > 100 µM (inactive) | > 100 µM (inactive) | > 100 µM (inactive) | > 100 µM (inactive) | – | > 100 µM (inactive) | > 100 µM (inactive) | > 100 µM (inactive)
O=C(N/C(=C\c1ccc(/C=C(\NC(=O)c2ccccc2)c2nc3cc(Cl)ccc3[nH]2)cc1)c1nc2cc(Cl)ccc2[nH]1)c1ccccc1 | 24.9 µM (inactive) | 5.31 µM (inactive) | 29 µM (inactive) | 21.4 µM | – | 63.4 µM (inactive) | 26.3 µM (inactive) | 26.9 µM (inactive) | 87.9 µM (inactive) | 22.4 µM (inactive) | 3.99 µM (inactive) | 17.4 µM (inactive) | 30.1 µM (inactive) | – | 39.6 µM (inactive) | 16.6 µM (inactive) | 20.6 µM (inactive)
COc1c(O)c2c3c(cc(C)cc3c1C(C)C)OC2 | > 100 µM (inactive) | > 100 µM (inactive) | > 100 µM (inactive) | > 100 µM | > 100 µM (inactive) | – | > 100 µM (inactive) | > 100 µM (inactive) | > 100 µM (inactive) | > 100 µM (inactive) | > 100 µM (inactive) | > 100 µM (inactive) | > 100 µM (inactive) | > 100 µM (inactive) | > 100 µM (inactive) | > 100 µM (inactive) | > 100 µM (inactive)
O=C(CSc1nnc[nH]1)C[P+](c1ccccc1)(c1ccccc1)c1ccccc1 | > 100 µM (inactive) | 78.2 µM (inactive) | > 100 µM (inactive) | > 100 µM | 31.7 µM (inactive) | > 100 µM (inactive) | – | > 100 µM (inactive) | > 100 µM (inactive) | 74.8 µM (inactive) | > 10 µM (inactive) | > 100 µM (inactive) | > 100 µM (inactive) | – | – | 99.1 µM (inactive) | > 100 µM (inactive)
